The record followed here is US7572910B2, “Pyridazinone aldose reductase inhibitors” (Pfizer, Inc., priority 2004, dated 2009).

Each structure is given as a SMILES string.

One may read the melting point as the temperature of the solid-liquid transition.

In turn, `Cn1c(S(=O)(=O)c2ccc(=O)[nH]n2)cc2ccccc21` [Example 40, 6-(N-Methylindole-2-sulfonyl)-2H-pyridazin-3-one] returned a melting point of 233 to 235 °C.

With `O=c1ccc(S(=O)(=O)c2oc3ccccc3c2O)n[nH]1` [Example 16, 6-(3-Hydroxy-benzofuran-2-sulfonyl)-2H-pyridazin-3-one], the melting point fell in the range of 186 to 189 °C. In the case of `O=c1ccc(S(=O)(=O)c2[nH]c3ccccc3c2Cl)n[nH]1` [Example 36, 6-(3-Chloro-indole-2-sulfonyl)-2H-pyridazin-3-one] it was 250 °C.
